Read-outs that look alike come from different tables or passages of the source.

In one assay the target is T1, PI3Kδ (Homo sapiens, UniProt O00329).
T1 construct: purchased Millipore Corporation 14-604-K
Kind of assay: PI3-Kinase HTRF assay, PI3Kδ. The assay is classed as biochemical. Particulars: bins Greater than 10 μM and Greater than 1 μM to 10 μM; 10 μM ATP, PIP2 at 10 μM. The text has this:
A PI3-Kinase HTRF® assay kit (cat No. 33-016) purchased from Millipore Corporation was used to screen compounds provided herein. This assay used specific, high affinity binding of the GRPI pleckstrin homology (PH) domain to PIP3, the product of a Class 1A or 1B PI3 Kinase acting on its physiological substrate PIP2. During the detection phase of the assay, a complex was generated between the GST-tagged PH domain and biotinylated short chain PIP3. The biotinylated PIP3 and the GST-tagged PH domain recruited fluorophores (Streptavidin-Allophycocyanin and Europium-labeled anti-GST respectively) to form the fluorescence resonance energy transfer (FRET) architecture, generating a stable time-resolved FRET signal. The FRET complex was disrupted in a competitive manner by non-biotinylated PIP3, a product formed in the PI3 Kinase assay.
PI3 Kinase α, β, γ and δ activity was assayed using the PI3 Kinase HTRF® assay kit (catalogue No. 33-016) purchased from Millipore Corporation. Purified recombinant PI3Kα (catalogue No. 14-602-K), PI3Kβ (catalogue No. 14-603-K), PI3Kγ (catalogue No. 14-558-K) and PI3Kδ (catalogue No. 14-604-K) were obtained from Millipore Corporation. Purified recombinant PI3K enzyme was used to catalyze the phosphorylation of phosphatidylinositol 4,5-bisphosphate (PIP2 at 10 μM) to phosphatidylinositol 3,4,5-trisphosphate (PIP3) in the presence of 10 μM ATP. The assay was carried out in 384-well format and detected using a Perkin Elmer EnVision Xcite Multilabel Reader. Emission ratios were converted into percent inhibitions and imported into GraphPad Prism software. The concentration necessary to achieve inhibition of enzyme activity by 50% (IC50) was calculated using concentrations ranging from 20 μM to 0.1 nM (12-point curve). IC50 values were determined using a nonlinear regression model available in GraphPad Prism 5. […]
In general terms: Time-resolved FRET reads energy transfer from a long-lived donor to a nearby acceptor.

In the next assay the test system is Balb/c splenic B cells. The assay is described as follows: B cell activation and proliferation assay. Particulars: Mus musculus, Greater than 1 μM to 10 μM, read-out: B cell proliferation EC50. The assay is classed as cell-based. Summed up:
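Read-out is metabolic activity by Alamar Blue reduction (5 h, 560Ex/590Em) after 72 h at 37° C, reported as IC50 or EC50. Compound (0.2% DMSO) was added 30 min before a cocktail holding 10 μg/ml LPS or 5 μg/ml F(ab′)2 anti-IgM with 2 ng/ml mouse IL4. Cells were purified Balb/c splenic B cells, 50.000 per well.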

Another assay deals with T2, PI3Kβ (Homo sapiens, UniProt P42338).
T2 construct: purchased Millipore Corporation 14-603-K
Kind of assay: PI3-Kinase HTRF assay, PI3Kβ. Format: biochemical. Particulars: bins Greater than 10 μM and Greater than 1 μM to 10 μM; 10 μM ATP, PIP2 at 10 μM. The essentials: (§1)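 Competitive time-resolved FRET readout of PIP3 formed from 10 μM PIP2 with 10 μM ATP, 1 h at room temperature, by each recombinant human isoform (α, β, γ, δ; 0.25-0.3 μg/ml). Compound (2% DMSO final) was preincubated 15 min with enzyme and substrate; IC50 fitted over 20 μM–0.1 nM, 12 points.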

Assay [1] concerns phospho-AKT in RAJI cells (PI3Kδ). Kind of assay: PI3Kδ selective assay, phospho-AKT in RAJI cells. Format: cell-based. To be noted: RAJI cells stimulated with anti-human IgM; read-out: IC50 for phospho-AKT, RAJI cell model. The text has this:
A compound's ability in selectively inhibiting PI3Kδ can be assessed using RAJI cells, i.e., B lymphocyte cells derived from lymphoma patients. Briefly, serum-starved RAJI cells are stimulated with anti-human IgM, thereby causing signaling through the B-cell receptors, as described in, for example, He et al., Leukemia Research (2009) 33: 798-802. B-cell receptor signaling is important for the activation, differentiation, and survival of B cells and certain B-cell derived cancers. Reduction of phospho-AKT is indicative of compounds that may inhibit B-cell proliferation and function in certain diseases. By monitoring the reduction of phospho-AKT in stimulated RAJI cells (using for example, phospho-AKT antibodies), a compound's potential efficacy in selectively inhibiting PI3Kδ can be assessed.

Assay [2] relates to phospho-AKT in RAW 264.7 cells (PI3Kγ). Kind of assay: PI3Kγ selective assay, phospho-AKT in RAW 264.7 cells. Particulars: Mus musculus, RAW264.7, stimulated with C5a, read-out: IC50 for phospho-AKT, RAW 264.7 cell model. The assay is classed as cell-based. The text has this: A compound's ability in selectively inhibiting PI3Kγ can be assessed using RAW264.7 macrophages. Briefly, serum-starved PAW264.7 cells are stimulated with a known GPCR agonist C5a. (See, e.g., Camps et al., Nature Medicine (2005) 11(9): 936-943). Cells can be treated with test compounds prior to, simultaneously with, or subsequent to the stimulation by C5a. RAW 264.7 cells respond to the complement component fragment C5a through activation of the C5a receptor, and the C5a receptor activates macrophages and induces cell migration. Test compounds' ability to inhibit C5a-mediated AKT phosphorylation is indicative of selective inhibition of PI3Kγ. Thus, by monitoring the reduction of phospho-AKT in stimulated RAW 264.7 cells (using for example, phospho-AKT antibodies), a compound's potential efficacy in selectively inhibiting PI3Kγ can be assessed.

For the next assay, the target named is T3, PI3Kα (Homo sapiens, UniProt P42336).
T3 construct: purchased Millipore Corporation 14-602-K
Kind of assay: PI3-Kinase HTRF assay, PI3Kα. The assay is classed as biochemical. To be noted: bins Greater than 10 μM and Greater than 1 μM to 10 μM; 10 μM ATP, PIP2 at 10 μM; read-out: IC50 P13Kα. The essentials:
as §1

Setting [3] is: ranges less than 100 nM and between 100 nM and 1 μM (given as 100-1000).

T2 sequence (P42338 whole entry): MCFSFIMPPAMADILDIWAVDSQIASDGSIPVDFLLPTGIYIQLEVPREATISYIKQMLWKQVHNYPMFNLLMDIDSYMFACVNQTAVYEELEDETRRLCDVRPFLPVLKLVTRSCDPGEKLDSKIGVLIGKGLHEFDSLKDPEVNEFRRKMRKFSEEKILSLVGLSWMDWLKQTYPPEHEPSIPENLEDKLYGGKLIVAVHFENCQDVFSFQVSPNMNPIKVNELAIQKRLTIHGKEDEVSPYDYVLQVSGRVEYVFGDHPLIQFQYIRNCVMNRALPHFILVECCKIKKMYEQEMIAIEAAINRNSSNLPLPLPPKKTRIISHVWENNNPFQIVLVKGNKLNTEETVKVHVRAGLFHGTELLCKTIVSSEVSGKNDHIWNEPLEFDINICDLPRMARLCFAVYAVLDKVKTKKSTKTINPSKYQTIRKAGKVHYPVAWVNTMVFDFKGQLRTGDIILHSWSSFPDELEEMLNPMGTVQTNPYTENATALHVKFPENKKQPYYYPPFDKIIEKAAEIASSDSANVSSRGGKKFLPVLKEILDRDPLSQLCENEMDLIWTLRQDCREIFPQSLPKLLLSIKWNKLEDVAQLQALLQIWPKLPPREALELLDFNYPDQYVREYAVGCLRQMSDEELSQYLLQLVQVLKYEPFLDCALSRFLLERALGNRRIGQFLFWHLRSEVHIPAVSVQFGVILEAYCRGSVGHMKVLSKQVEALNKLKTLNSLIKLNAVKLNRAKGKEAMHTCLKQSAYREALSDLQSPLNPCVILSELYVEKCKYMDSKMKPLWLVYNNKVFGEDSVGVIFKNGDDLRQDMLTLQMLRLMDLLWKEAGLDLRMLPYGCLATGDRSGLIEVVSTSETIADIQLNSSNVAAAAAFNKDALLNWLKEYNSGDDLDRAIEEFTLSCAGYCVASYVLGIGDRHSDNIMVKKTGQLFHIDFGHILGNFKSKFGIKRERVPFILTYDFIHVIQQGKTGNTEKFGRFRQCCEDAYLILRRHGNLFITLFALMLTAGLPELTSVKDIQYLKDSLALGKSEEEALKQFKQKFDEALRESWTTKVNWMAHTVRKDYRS
T2 sequence (P27986 whole entry partner): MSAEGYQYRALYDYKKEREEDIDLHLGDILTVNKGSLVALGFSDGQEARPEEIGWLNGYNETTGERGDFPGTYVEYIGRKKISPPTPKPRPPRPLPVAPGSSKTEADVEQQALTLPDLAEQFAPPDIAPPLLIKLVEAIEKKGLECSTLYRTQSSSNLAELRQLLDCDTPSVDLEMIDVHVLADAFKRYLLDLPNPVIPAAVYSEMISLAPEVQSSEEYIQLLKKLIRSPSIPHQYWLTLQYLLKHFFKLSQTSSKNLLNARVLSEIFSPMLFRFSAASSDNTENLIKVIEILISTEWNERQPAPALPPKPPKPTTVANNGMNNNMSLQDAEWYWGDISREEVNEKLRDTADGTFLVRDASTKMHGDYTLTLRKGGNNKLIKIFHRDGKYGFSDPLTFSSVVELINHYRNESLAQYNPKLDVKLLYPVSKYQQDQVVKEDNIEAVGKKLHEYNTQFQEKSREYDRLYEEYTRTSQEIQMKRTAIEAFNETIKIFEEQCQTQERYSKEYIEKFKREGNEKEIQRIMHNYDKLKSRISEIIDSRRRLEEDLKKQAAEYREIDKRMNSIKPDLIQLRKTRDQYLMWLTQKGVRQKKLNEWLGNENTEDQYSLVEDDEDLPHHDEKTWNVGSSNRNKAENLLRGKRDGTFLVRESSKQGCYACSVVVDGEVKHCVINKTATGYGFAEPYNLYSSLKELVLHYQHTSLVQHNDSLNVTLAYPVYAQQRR
T3 sequence (P42336 whole entry): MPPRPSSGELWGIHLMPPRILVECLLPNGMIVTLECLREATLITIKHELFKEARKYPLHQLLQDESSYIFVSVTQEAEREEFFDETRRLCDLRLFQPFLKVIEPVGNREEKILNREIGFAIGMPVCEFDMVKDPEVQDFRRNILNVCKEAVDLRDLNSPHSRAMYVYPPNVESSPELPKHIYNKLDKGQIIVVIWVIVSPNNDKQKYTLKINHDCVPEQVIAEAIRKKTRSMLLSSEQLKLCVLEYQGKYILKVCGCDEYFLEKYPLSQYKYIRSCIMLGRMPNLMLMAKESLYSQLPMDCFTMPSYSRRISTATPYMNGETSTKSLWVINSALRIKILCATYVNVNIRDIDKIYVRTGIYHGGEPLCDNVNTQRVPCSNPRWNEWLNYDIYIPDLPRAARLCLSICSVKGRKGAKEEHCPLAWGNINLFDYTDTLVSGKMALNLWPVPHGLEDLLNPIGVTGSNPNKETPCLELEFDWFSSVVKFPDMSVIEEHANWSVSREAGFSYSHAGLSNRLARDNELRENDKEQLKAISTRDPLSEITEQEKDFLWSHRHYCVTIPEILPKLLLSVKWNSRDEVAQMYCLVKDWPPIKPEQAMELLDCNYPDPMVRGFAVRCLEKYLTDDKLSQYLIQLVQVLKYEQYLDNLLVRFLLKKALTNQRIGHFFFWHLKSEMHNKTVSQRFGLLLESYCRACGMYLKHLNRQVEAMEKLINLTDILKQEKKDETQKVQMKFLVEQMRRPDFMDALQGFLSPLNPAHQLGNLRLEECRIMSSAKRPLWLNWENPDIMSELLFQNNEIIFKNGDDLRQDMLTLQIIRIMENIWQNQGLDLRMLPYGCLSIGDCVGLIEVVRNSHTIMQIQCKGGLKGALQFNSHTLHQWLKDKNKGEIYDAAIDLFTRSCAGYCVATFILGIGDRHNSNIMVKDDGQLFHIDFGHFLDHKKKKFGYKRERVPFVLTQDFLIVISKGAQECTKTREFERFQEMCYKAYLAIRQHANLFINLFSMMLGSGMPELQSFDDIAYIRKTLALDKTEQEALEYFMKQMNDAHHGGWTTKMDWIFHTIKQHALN
T3 sequence (P27986 whole entry partner): as the sequence (P27986 whole entry partner) above
T1 sequence (O00329 whole entry): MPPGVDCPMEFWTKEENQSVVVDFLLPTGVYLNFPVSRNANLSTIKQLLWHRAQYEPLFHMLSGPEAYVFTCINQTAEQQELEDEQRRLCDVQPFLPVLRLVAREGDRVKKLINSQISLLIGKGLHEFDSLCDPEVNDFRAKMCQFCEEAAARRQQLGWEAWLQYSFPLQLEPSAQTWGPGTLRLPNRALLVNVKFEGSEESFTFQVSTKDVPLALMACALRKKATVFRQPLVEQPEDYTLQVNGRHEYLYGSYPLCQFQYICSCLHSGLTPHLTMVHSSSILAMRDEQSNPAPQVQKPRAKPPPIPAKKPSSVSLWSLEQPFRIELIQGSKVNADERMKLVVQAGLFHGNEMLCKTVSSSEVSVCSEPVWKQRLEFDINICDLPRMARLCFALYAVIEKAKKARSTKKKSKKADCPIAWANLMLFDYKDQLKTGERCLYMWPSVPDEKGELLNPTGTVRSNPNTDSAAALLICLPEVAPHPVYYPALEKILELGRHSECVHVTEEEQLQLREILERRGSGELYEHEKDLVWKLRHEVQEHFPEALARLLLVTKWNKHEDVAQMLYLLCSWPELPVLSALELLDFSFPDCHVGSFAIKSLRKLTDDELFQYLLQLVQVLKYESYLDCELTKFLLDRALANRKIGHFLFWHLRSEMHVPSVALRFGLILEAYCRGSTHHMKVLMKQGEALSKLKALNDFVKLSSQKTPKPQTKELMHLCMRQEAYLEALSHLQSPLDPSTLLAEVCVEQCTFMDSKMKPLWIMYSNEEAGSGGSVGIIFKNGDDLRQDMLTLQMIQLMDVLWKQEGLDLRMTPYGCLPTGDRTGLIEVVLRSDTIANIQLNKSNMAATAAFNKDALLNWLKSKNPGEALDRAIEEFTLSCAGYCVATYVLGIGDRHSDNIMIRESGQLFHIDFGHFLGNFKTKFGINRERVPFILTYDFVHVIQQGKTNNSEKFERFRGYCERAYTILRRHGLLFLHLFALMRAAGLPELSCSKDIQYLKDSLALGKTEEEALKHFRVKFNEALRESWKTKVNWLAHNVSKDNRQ
T1 sequence (P27986 whole entry partner): as the sequence (P27986 whole entry partner) above

For the compound `C[C@H](Nc1nc(N)ncc1-c1ccccc1)c1cc2cccc(Cl)c2c(=O)n1-c1ccccc1` [Compound 82, (S)-3-(1-(2-amino-5-phenylpyrimidin-4-ylamino)ethyl)-8-chloro-2-phenylisoquinolin-1(2H)-one], the IC50 (commonly the concentration needed to halve the response being measured) on PI3Kδ fell in the range of 1000 to 10000 nM. In the assay with Balb/c splenic B cells, the EC50 fell in the range of 1000 to 10000 nM.
`C[C@H](Nc1nc(N)ncc1S(C)(=O)=O)c1cc2cccc(Cl)c2c(=O)n1-c1ccccc1` [Compound 85, (S)-3-(1-(2-amino-5-(methylsulfonyl)pyrimidin-4-ylamino)ethyl)-8-chloro-2-phenylisoquinolin-1(2H)-one]: the IC50 against PI3Kδ lay in the range of 1000 to 10000 nM.
Consider `C[C@H](Nc1nc(N)ncc1C#N)c1cc2cccc(Cl)c2c(=O)n1C1CC1` [Compound 104], for which the IC50 against PI3Kδ was 1000 to 10000 nM; at PI3Kβ, 1000 to 10000 nM; in assay [1], < 100 nM; in assay [2] (setting [3]), 100 to 1000 nM.
Consider `COc1cccc2cc([C@H](C)Nc3nc(N)ncc3C#N)n(-c3ccccc3)c(=O)c12` [Compound 148], for which, on PI3Kδ, the IC50 lay within 1000 to 10000 nM.
On the same count and under the same terms, as for `COc1cc(-c2cccc3cc([C@H](C)Nc4nc(N)ncc4C(=O)N4CCC4)n(-c4ccccc4)c(=O)c23)ccn1` [Compound 154], the figure is 1000 to 10000 nM.
Same read-out and setting: to `CCN(C)C(=O)c1cnc(N)nc1N[C@@H](C)c1cc2cccc(-c3ccnc(OC)c3)c2c(=O)n1-c1ccccc1` [Compound 155] belongs 1000 to 10000 nM.
Take `C[C@H](Nc1nc(N)ncc1C#N)c1cc2cccc(-c3cncc(NS(C)(=O)=O)c3)c2c(=O)n1-c1ccccc1` [Compound 191]: the IC50 at PI3Kδ is 1000 to 10000 nM; on PI3Kα, 1000 to 10000 nM; against PI3Kβ, 1000 to 10000 nM; in assay [1], < 100 nM; in assay [2] (range between 1 μM and 10 μM) it was 1000 to 10000 nM.
Take `C[C@H](Nc1nc(N)ncc1C#N)c1cc2cccc(Cl)c2c(=O)n1-c1ccc(C#N)cc1` [Compound 220]: the IC50 against PI3Kδ and against PI3Kβ was 1000 to 10000 nM throughout.
As to `COc1cnc(-c2cccc3cc([C@H](C)Nc4nc(N)ncc4C#N)n(-c4ccccc4)c(=O)c23)nc1` [Compound 228], the IC50 on PI3Kδ was in the range of 1000 to 10000 nM.
`C[C@H](Nc1nc(N)ncc1C#N)c1cc2cccc(Cl)c2c(=O)n1-c1ccc(F)c(F)c1` [Compound 270]: the IC50 was 1000 to 10000 nM against PI3Kδ, 1000 to 10000 nM against PI3Kβ, < 100 nM in assay [1] and < 100 nM in assay [2] (setting [3]).
On to `C[C@H](Nc1nc(N)ncc1C#N)c1cc2cccc(Cl)c2c(=O)n1-c1c(F)cccc1F` [Compound 279], for which the IC50 at PI3Kδ was 1000 to 10000 nM; against PI3Kβ, 1000 to 10000 nM; in assay [1] it was < 100 nM; in assay [2] (setting [3]), < 100 nM.
`COc1cc(-n2c([C@H](C)Nc3nc(N)ncc3C#N)cc3cccc(Cl)c3c2=O)ccc1F` [Compound 291]: the IC50 was 1000 to 10000 nM against PI3Kδ, 1000 to 10000 nM at PI3Kβ, < 100 nM in assay [1] and < 100 nM in assay [2] (setting [3]).
With `C[C@H](Nc1nc(N)ncc1C#N)c1cc2cccc(-c3ccc(=O)n(C)c3)c2c(=O)n1-c1ccon1` [Compound 338], the IC50 at PI3Kδ is 1000 to 10000 nM; at PI3Kα it was 1000 to 10000 nM; against PI3Kβ it was 1000 to 10000 nM; in assay [1], < 100 nM; in assay [2] (range between 1 μM and 10 μM) it was 1000 to 10000 nM.
On to `C[C@H](Nc1nc(N)ncc1-c1cncc(S(C)(=O)=O)c1)c1cc2cccc(Cl)c2c(=O)n1-c1ccccc1` [Compound 401], for which the IC50 was 1000 to 10000 nM against PI3Kδ; 1000 to 10000 nM on PI3Kα; 1000 to 10000 nM on PI3Kβ; < 100 nM in assay [1]; 100 to 1000 nM in assay [2] (setting [3]).
As for `C[C@H](Nc1nc(N)ncc1-c1ccc(S(C)(=O)=O)nc1)c1cc2cccc(Cl)c2c(=O)n1-c1ccccc1` [Compound 402], the IC50 was 1000 to 10000 nM against PI3Kδ; 1000 to 10000 nM against PI3Kβ; < 100 nM in assay [1]; 1000 to 10000 nM in assay [2] (range between 1 μM and 10 μM).
With `C[C@H](Nc1cc(Cl)ncc1C#N)c1cc2cccc(Cl)c2c(=O)n1-c1ccccc1` [Compound 429], at PI3Kδ, the IC50 was in the range of 1000 to 10000 nM.
Same read-out and setting: as for `C[C@H](Nc1nc(N)ncc1C(=O)N1CCC1)c1cc2cccc(Cl)c2c(=O)n1-c1ccccc1` [Compound 433], the figure is 1000 to 10000 nM.

The record behind these values is patent publication US8785470B2, “Heterocyclic compounds and uses thereof” (Infinity Pharmaceuticals, Inc., priority 2011, dated 2014).
